SMILES strings stand for the structures.

The target in one assay is T1, hDGAT1 (Homo sapiens, UniProt O75907).
T1 construct: host or cells: Sf9 insect cells (baculovirus); microsomal preparation
T1 sequence (O75907 1-488): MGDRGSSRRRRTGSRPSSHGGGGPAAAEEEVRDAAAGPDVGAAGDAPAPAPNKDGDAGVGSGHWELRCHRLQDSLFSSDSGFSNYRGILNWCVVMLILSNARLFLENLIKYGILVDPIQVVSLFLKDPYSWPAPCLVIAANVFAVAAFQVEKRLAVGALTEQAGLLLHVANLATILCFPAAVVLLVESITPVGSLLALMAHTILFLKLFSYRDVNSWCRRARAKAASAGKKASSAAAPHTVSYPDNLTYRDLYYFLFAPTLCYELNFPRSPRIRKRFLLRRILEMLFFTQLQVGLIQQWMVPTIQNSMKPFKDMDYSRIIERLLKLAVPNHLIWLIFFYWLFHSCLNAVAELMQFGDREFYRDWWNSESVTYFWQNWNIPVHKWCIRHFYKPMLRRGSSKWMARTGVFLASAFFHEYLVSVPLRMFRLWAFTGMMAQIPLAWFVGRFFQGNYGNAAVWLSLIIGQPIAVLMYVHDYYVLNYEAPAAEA
The experiment in a line: In-vitro DGAT1 assay (hDGAT1 microsomes from Sf9 cells, 14C oleoyl CoA, triglyceride formation). Format: biochemical. The following applies: At 1 μM. An outline of the steps:
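Human DGAT1 in baculovirus-infected Sf9 microsomes (2.5–10 μg), [14C]oleoyl-CoA with 409.5, 1228.5 or 1638 μM 1,2-dioleoyl-sn-glycerol, Tris-HCl pH 7.4 buffer with BSA. Compounds screened at 10, 5 and 1 μM in duplicate. Reaction 10 min at 37 °C; heptane-extracted [14C]triglyceride counted by scintillation.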
In the case of `CC(C)[C@H](NC(=O)c1cc(-c2ccc(NC(=O)Nc3ccc(C(F)(F)F)cc3Cl)cc2)no1)C(=O)O` [Example 232, (S)-2-(3-(4-(3-(2-Chloro-4-(trifluoromethyl)phenyl)ureido)phenyl)isoxazole-5-carboxamido)-3-methylbutanoic acid], the inhibition (as a rule, the percentage by which the read-out fell short of the control) at 1 µM was 75 to 100%.

With `COc1ccc(NC(=O)Nc2ccc(-c3cc(C(=O)N[C@H](C(=O)O)C(C)C)on3)cc2)c(OC)c1` [Example 169, (S)-2-(3-(4-(3-(2,4-dimethoxyphenyl)ureido)phenyl)isoxazole-5-carboxamido)-3-methylbutanoic acid], the inhibition at 1 µM lay in the range of 50 to 75%.

`CC(C)[C@H](NC(=O)c1cc(-c2ccc(NC(=O)Nc3ccc(Cl)nc3)cc2)no1)C(=O)O` [Example 207, (S)-2-(3-(4-(3-(6-chloropyridin-3-yl)ureido)phenyl)isoxazole-5-carboxamido)-3-methylbutanoic acid]: the inhibition at 1 µM was 0 to 50%.

For the compound `CC(C)C(NC(=O)c1cc(-c2ccc(NC(=O)Nc3ccc(OC(F)(F)F)c(Cl)c3)cc2)no1)C(=O)O` (centres unmarked) [Example 289, (3-(4-(3-(3-chloro-4-(trifluoromethoxy)phenyl)ureido)phenyl)isoxazole-5-carboxamido)-3-methylbutanoic acid], the “% inhibition of hDGAT1” value was “+++ (>75% Inhibition ≦100)”.

`CC(C)[C@H](NC(=O)c1cc(-c2ccc(NC(=O)Nc3cccc(Cl)c3F)cc2)no1)C(=O)O` [Example 183, (S)-2-(3-(4-(3-(3-chloro-2-fluorophenyl)ureido)phenyl)isoxazole-5-carboxamido)-3-methylbutanoic acid] yielded an inhibition at 1 µM of 75 to 100%.

With `CC(C)[C@H](NC(=O)c1cc(-c2ccc(NC(=O)Nc3cc(Cl)ccc3Oc3ccccc3)cc2)no1)C(=O)O` [Example 236, (S)-2-(3-(4-(3-(5-Chloro-2-phenoxyphenyl)ureido)phenyl)isoxazole-5-carboxamido)-3-methylbutanoic acid], the inhibition at 1 µM fell in the range of 75 to 100%.

On to `Cc1cccc(Cl)c1NC(=O)Nc1ccc(-c2cc(C(=O)N[C@H](C(=O)O)C(C)C)on2)cc1` [Example 175, (S)-2-(3-(4-(3-(2-Chloro-6-methylphenyl)ureido)phenyl)isoxazole-5-carboxamido)-3-methylbutanoic acid], for which the inhibition at 1 µM was 0 to 50%.

Take `CC(C)[C@H](NC(=O)c1cc(-c2ccc(NC(=O)Nc3ccccc3Oc3ccccc3)cc2)no1)C(=O)O` [Example 238, (S)-3-Methyl-2-(3-(4-(3-(2-phenoxyphenyl)ureido)phenyl)isoxazole-5-carboxamido)butanoic acid]: the inhibition at 1 µM fell in the range of 75 to 100%.

As for `CC(C)[C@H](NC(=O)c1cc(-c2ccc(NC(=O)Nc3c(F)cccc3C(F)(F)F)cc2)no1)C(=O)O` [Example 230, (S)-2-(3-(4-(3-(2-Fluoro-6-(trifluoromethyl)phenyl)ureido)phenyl)isoxazole-5-carboxamido)-3-methylbutanoic acid], the inhibition at 1 µM lay within 0 to 50%.

Consider `CC(C)[C@H](NC(=O)c1cc(-c2ccc(NC(=O)Nc3ccc4c(c3)OCO4)cc2)no1)C(=O)O` [Example 177, (S)-2-(3-(4-(3-benzo[d][1,3]dioxol-5-ylureido)phenyl)isoxazole-5-carboxamido)-3-methylbutanoic acid], for which the inhibition at 1 µM was in the range of 75 to 100%.

The compound `CC(C)[C@@H](NC(=O)c1cc(-c2ccc(NS(=O)(=O)c3ccc(C(F)(F)F)cc3)cc2)no1)C(=O)O` [Example 319, (R)-3-methyl-2-(3-(4-(4-(trifluoromethyl)phenylsulfonamido)phenyl)isoxazole-5-carboxamido)butanoic acid] registered an inhibition at 1 µM of 0 to 50%.

The compound `CC(C)C(NC(=O)c1cc(-c2ccc(NC(=O)Nc3ccc(C4CCCCC4)cc3)cc2)no1)C(=O)O` (centres unmarked) [Example 293, 2-(3-(4-(3-(4-cyclohexylphenyl)ureido)phenyl)isoxazole-5-carboxamido)-3-methylbutanoic acid] returned an inhibition at 1 µM of 75 to 100%.

In turn, `CC(C)[C@H](NC(=O)c1csc(-c2ccc(NC(=O)Nc3cccc(C(F)(F)F)c3)cc2)n1)C(=O)O` [Example 367, (S)-3-Methyl-2-(2-(4-(3-(3-(trifluoromethyl)phenyl)ureido)phenyl)thiazole-4-carboxamido)butanoic acid] showed an inhibition at 1 µM of 0 to 50%.

Regarding `CC(C)[C@H](NC(=O)c1cc(-c2ccc(NC(=O)Nc3cc(C(F)(F)F)ccc3Cl)cc2)no1)C(=O)O` [Example 211, (S)-2-(3-(4-(3-(2-chloro-5-(trifluoromethyl)phenyl)ureido)phenyl)isoxazole-5-carboxamido)-3-methylbutanoic acid], the inhibition at 1 µM was 75 to 100%.

As for `CC(C)C(NC(=O)c1cc(-c2ccc(NC(=O)Nc3cc(F)cc(F)c3)cc2)no1)C(=O)O` (centres unmarked) [Example 160, 2-(3-(4-(3-(3,5-difluorophenyl)ureido)phenyl)isoxazole-5-carboxamido)-3-methylbutanoic acid], the inhibition at 1 µM was in the range of 75 to 100%.

Staying with this assay, now noted: At 5 μM.
`COC(=O)[C@@H](NC(=O)c1nc(-c2ccc(NC(=O)NCc3ccccc3)cc2)no1)C(C)C` [Example 352, (S)-methyl 2-(3-(4-(3-benzylureido)phenyl)-1,2,4-oxadiazole-5-carboxamido)-3-methylbutanoate] gave an inhibition at 5 µM of 0 to 50%.

Compound `COC(=O)C(NC(=O)c1cc(-c2ccc(NC(=O)Nc3cccc(C(F)(F)F)c3)cc2)no1)C(C)C` (centres unmarked) [Example 277, Methyl 3-methyl-2-(3-(4-(3-(3-(trifluoromethyl)phenyl)ureido)phenyl)isoxazole-5-carboxamido)butanoate] returned an inhibition at 5 µM of 0 to 50%.

In the case of `COC(=O)CCCNC(=O)c1cc(-c2ccc(NC(=O)Nc3ccccc3F)cc2)no1` [Example 253, Methyl 4-(3-(4-(3-(2-fluorophenyl)ureido)phenyl)isoxazole-5-carboxamido)butanoate], the inhibition at 5 µM lay within 0 to 50%.

In turn, `COC(=O)[C@@H](NC(=O)c1cc(-c2ccc(NC(=S)Nc3ccccc3F)cc2)no1)C(C)C` [Example 269, (S)-methyl 2-(3-(4-(3-(2-fluorophenyl)thioureido)phenyl)isoxazole-5-carboxamido)-3-methylbutanoate] registered an inhibition at 5 µM of 0 to 50%.

`Cc1ccccc1S(=O)(=O)NC(=O)Nc1ccc(-c2cc(C(=O)NC(C(=O)O)C(C)C)on2)cc1` (centres unmarked) [Example 264, 3-Methyl-2-(3-(4-(3-(o-tolylsulfonyl)ureido)phenyl)isoxazole-5-carboxamido)butanoic acid]: the inhibition at 5 µM is 0 to 50%.

On to `O=C(O)CCCNC(=O)c1cc(-c2ccc(NC(=O)Nc3ccccc3F)cc2)no1` [Example 254, 4-(3-(4-(3-(2-Fluorophenyl)ureido)phenyl)isoxazole-5-carboxamido) butanoic acid], for which the inhibition at 5 µM was in the range of 50 to 75%.

Still in this assay, the particulars now being: At 10 μM.
For the compound `CC(C)C(NC(=O)c1cc(-c2ccc(NC(=O)Nc3ccccc3F)c(F)c2)no1)C(=O)O` (centres unmarked) [Example 148, 2-(3-(3-fluoro-4-(3-(2-fluorophenyl)ureido)phenyl)isoxazole-5-carboxamide)-3-methylbutanoic acid], the “% inhibition of hDGAT1” value is “+++ (>75% Inhibition ≦100)”.

`O=C(N[C@@H](CO)C(=O)O)c1cc(-c2ccc(Nc3nc4ccc(F)cc4s3)cc2)no1` [Example 10, (S)-2-({3-[4-(6-Fluoro-benzothiazol-2-ylamino)-phenyl]-isoxazole-5-carbonyl}-amino)-3-hydroxy-propionic acid] gave an inhibition at 10 µM of 50 to 75%.

On to `CC(C)[C@H](NC(=O)c1onc(-c2ccc(NC(=O)Nc3ccccc3)cc2)c1-c1ccccc1)C(=O)O` [Example 89, (S)-3-Methyl-2-({4-phenyl-3-[4-(3-phenyl-ureido)-phenyl]-isoxazole-5-carbonyl}-amino)-butyric acid], for which the inhibition at 10 µM fell in the range of 0 to 50%.

`O=C(O)c1cc(-c2ccc(Nc3nc4ccc(F)cc4s3)cc2)no1` [Example 2, 3-[4-(6-Fluoro-benzothiazol-2-ylamino)-phenyl]-isoxazole-5-carboxylic acid]: the inhibition at 10 µM lay within 0 to 50%.

Turning to `COC[C@H](NC(=NO)c1cc(-c2cccc(Nc3nc4ccc(F)cc4s3)c2)no1)C(=O)OC` [Example 32, (S)-2-({3-[3-(6-Fluoro-benzothiazol-2-ylamino)-phenyl]-N-hydroxy-isoxazole-5-carboximidoyl}-amino)-3-methoxy-propionic acid methyl ester], the inhibition at 10 µM lay in the range of 0 to 50%.

For `CC(C)C[C@H](NC(=O)c1cc(-c2ccc(Nc3nc4ccc(F)cc4s3)cc2)no1)C(=O)O` [Example 47, (S)-2-({3-[4-(6-fluoro-benzothiazol-2-ylamino)-phenyl]-isoxazole-5-carbonyl}-amino)-4-methyl-pentanoic acid], the inhibition at 10 µM was in the range of 75 to 100%.

`COC[C@H](NC(=O)c1cc(-c2cccc(Nc3nc4ccc(F)cc4s3)c2)no1)C(=O)O` [Example 29, (S)-2-({3-[3-(6-Fluoro-benzothiazol-2-ylamino)-phenyl]-isoxazole-5-carbonyl}-amino)-3-methoxy-propionic acid] showed an inhibition at 10 µM of 0 to 50%.

`Cc1cc(-c2cc(C(=O)NC(C(=O)O)C(C)C)on2)ccc1NC(=O)Nc1ccc(F)cc1F` (centres unmarked) [Example 103, 2-(3-(4-(3-(2,4-Difluorophenyl)ureido)-3-methylphenyl)isoxazole-5-carboxamido)-3-methylbutanoic acid] showed an inhibition at 10 µM of 75 to 100%.

Values taken from patent US8835428B2, “Diacylglycerol acyltransferase inhibitors” (Piramal Enterprises Limited, priority 2008, dated 2014).
